Assay results reported in US5183828A, “Polyhydroxybenzoic acid derivatives” (priority 1990, dated 1993).

Legend:
[1] = system: superoxide (xanthine oxidase reaction or human leukocytes); assay: effect on superoxide generation in vitro; assay type: biochemical
Protocol: The rate of production of superoxide from the xanthine oxidase reaction or from human leukocytes activated with phorbol myristate acetate was measured spectrophotometrically as the superoxide dismutase (SOD)-inhibitable portion of the reduction of ferricytochrome c or nitroblue tetrazolium (NBT). All assays were carried out at 37° C., pH 7.1. For the superoxide production by the xanthine oxidase reaction, a concentration of 0.04 U/ml of xanthine oxidase was used with 0.1 mM xanthine as substrate. Absorbances were measured in the presence of 30 U/ml of SOD and in its absence. The indicators were either ferricytochrome c or NBT in a concentration of 20 uM. The initial rate of reduction of NBT was monitored at 530 nm and that of cytochrome c at 550 nm. Extinction coefficients were 21.4×10 ^3 /M cm for cytochrome c and 17.9×10^3 /M cm for NBT. The initial rate of production of superoxide from leukocytes was measured using a concentration of 20 uM ferricytochrome c or NBT as described above in the presence and absence of 30 U/ml of SOD.

[2] = system: isolated rabbit hearts; assay: contractile function in isolated Langendorff rabbit heart after global ischemia and reperfusion, Table 9; design: species or system New Zealand white rabbits; settings: 30 min global ischemia, 45 min reperfusion; bolus of 10 mM solution then 100 uM over first min; control 49 ± 9 (p<0.01)
From the text: The compounds of this invention, as represented by the above formula, are useful in treating ischemia reperfusion injury, presumably because of their free-radical scavenging ability. The following protocol illustrates this activity on the ischemia produced during treatment of coronary artery disease.
(§1) Female New Zealand white rabbits (2 kg) were heparinized and anesthetized and their hearts removed. The isolated rabbit hearts were perfused by the method of Langendorff at a constant pressure of 80 mm Hg with a Krebs-bicarbonate-buffered perfusate which was bubbled with 95% O2, 5 % CO2 gas. Chelex-treated perfusate was prepared by eluting the solution through a column of chelex 100 resin which was pre-equilibrated with 4 volumes of the perfusate solution. All perfusate solutions were routinely filtered through 0.8 um millipore filters prior to use. Heart rate and left ventricular developed pressure were measured using a fluid-filled balloon secured into the left ventrile. The balloon was connected to a Statham P23 DB pressure transducer via a hydraulic line and the transducer output amplified to a strip chart recorder. The ventricular volume was adjusted to achieve a left ventricular end disastolic pressure of 12 mmHg. During periods of global ischemia, the balloon was deflated and then reinflated 15 min after reflow. […]

[3] = system: DMPO-OH and DMPO-R radical adducts in coronary effluent of reperfused rabbit hearts; assay: EPR spin trapping (DMPO) on coronary effluent of reperfused rabbit hearts; design: species or system New Zealand white rabbits
Protocol: as §1, with “recorder.” for “recorder. The ventricular volume was adjusted to achieve a left ventricular end disastolic pressure of 12 mmHg. During periods of global ischemia, the balloon was deflated and then reinflated 15 min after reflow.”
EPR spectra were recorded in flat cells at room temperature with either Varian E-9 or Bruker-IBM ER 300 spectrometers operating at X-band using 100 kHz modulation frequency and with TE 104 or TM 110 cavities. The microwave frequency and magnetic field were precisely measured using a Hewlett Packard 5342A Microwave Frequency counter and Bruker ER 035M NMR Gaussmeter. […] Quantitation of the free radical signals was performed by comparing the double integral of the observed signal to that of a known concentration of the tempo free radical in aqueous solution. […]

## NC(=NO)c1cc(O)c(O)c(O)c1 [3,4,5-trihydroxybenzamidoxime]
[1]; 10 uM compound
  Cytochrome C Reduction: 4.73 nmol
  NBT Reduction: 5.35 nmol
[1]; 20 uM compound
  Cytochrome C Reduction: 4.56 nmol
  NBT Reduction: 5.06 nmol
[1]; 50 uM compound
  Cytochrome C Reduction: 5.38 nmol
  NBT Reduction: 2.55 nmol
[1]; 100 uM compound
  Cytochrome C Reduction: 6.06 nmol
  NBT Reduction: 1.14 nmol
[1]; 200 uM compound
  Cytochrome C Reduction: 6.50 nmol
  NBT Reduction: 0.81 nmol
[1]; 300 uM compound
  Cytochrome C Reduction: 6.25 nmol
  NBT Reduction: 0.71 nmol
[1]; 500 uM compound
  Cytochrome C Reduction: 5.81 nmol
  NBT Reduction: 0.87 nmol
[2]
  Left ventricular developed pressure: 67±9 mm Hg
[3]; 40 mM DMPO, post-ischemic reperfusion with drug
  DMPO-OH and DMPO-R EPR signals upon reperfusion: not observed
[3]; with or without DMPO
  new radical EPR signal on reperfusion with drug: appears as a single broad peak centered at 3480 G
